The record followed here is patent US20100105864A1, “PROPHYLACTIC OR THERAPEUTIC AGENT FOR DIARRHEA” (priority 2007, published 2010).

The target of the assay is T1, human calcium receptor (Homo sapiens, UniProt P41180).
T1 construct: expressed in transfected cells; host or cells: Xenopus laevis oocytes injected with cRNA
T1 sequence (P41180 20-1078): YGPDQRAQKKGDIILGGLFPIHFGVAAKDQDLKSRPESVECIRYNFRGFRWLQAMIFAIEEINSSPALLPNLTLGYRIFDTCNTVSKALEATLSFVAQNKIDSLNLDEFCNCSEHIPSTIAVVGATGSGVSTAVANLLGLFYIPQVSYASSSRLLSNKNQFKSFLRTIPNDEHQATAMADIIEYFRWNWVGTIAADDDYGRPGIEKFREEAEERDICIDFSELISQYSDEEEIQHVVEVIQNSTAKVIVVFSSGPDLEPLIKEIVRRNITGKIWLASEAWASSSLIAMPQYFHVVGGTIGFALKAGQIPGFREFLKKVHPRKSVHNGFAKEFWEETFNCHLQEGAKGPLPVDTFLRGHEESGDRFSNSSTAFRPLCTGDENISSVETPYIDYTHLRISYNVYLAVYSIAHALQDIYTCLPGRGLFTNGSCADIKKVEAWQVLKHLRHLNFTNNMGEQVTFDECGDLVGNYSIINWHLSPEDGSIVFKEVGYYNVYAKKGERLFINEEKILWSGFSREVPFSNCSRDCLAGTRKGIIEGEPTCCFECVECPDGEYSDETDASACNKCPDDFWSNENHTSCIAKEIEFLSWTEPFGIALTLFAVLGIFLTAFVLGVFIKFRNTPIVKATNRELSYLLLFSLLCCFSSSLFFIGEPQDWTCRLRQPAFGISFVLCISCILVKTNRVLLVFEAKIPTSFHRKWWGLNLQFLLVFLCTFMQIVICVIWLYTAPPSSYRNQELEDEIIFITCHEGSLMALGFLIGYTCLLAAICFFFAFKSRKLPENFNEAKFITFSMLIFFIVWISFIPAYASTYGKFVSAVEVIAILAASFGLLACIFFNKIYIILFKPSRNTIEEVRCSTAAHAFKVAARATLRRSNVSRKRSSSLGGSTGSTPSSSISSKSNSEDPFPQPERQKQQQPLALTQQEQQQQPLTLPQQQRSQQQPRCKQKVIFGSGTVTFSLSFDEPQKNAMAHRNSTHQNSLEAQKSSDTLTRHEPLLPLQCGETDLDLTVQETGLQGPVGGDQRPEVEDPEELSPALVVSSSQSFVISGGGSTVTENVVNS
In words: Ca ion concentration-dependent Cl ionic current measurement in Xenopus laevis oocytes expressing the calcium receptor. The assay is classed as cell-based. The settings on record: peptide added at 50 μM. On the procedure: For evaluation of the calcium receptor-activating action, a Ca ion concentration-dependent Cl ionic current measuring method using a Xenopus laevis oocyte expression system was used. If each activator is added to Xenopus laevis oocytes expressing the calcium receptor, intracellular Ca ions increase. Then, the Ca ion concentration-dependent Cl channel opens, and the intracellular current value changes as an ionic current. By measuring the change in the intracellular current value, whether the calcium receptor-activating action is present or not can be determined.
Specifically, the abdomen of Xenopus laevis was opened, and an egg batch was taken out and then treated with a 1% collagenase solution at 20° C. for 2 hours to obtain individual oocytes. Into the oocytes, 50 nl of 1 μg/μl receptor cRNA or 50 nl of sterilized water per oocyte were injected by using a micro glass capillary, and the oocytes were cultured at 18° C. for 2 to 3 days. For the culture, a solution obtained by adding 2 mM pyruvic acid, 10 U/ml penicillin, and 10 μg/ml streptomycin to the solution in Example 2 was used. After the culture, a test solution was added to the oocytes injected with cRNA or sterilized water. Electrophysiological measurement was performed by using an amplifier Geneclamp 500 (manufactured by Axon) and recording software AxoScope 9.0 (manufactured by Axon). The oocytes were membrane potential-clamped at −70 mV by the double electrode potential clamp method, and the intracellular current was measured via the Ca ion concentration-dependent Cl ion channel. The maximum value of the intracellular current was defined as the response current value. […]
The calcium receptor-activating action of L-amino acids was evaluated by using the method described in Example 13. That is, oocytes injected with cRNA of the calcium receptor or sterilized water were prepared, and membrane potential-clamped at −70 mV by the double electrode potential clamp method. To the potential-clamped oocytes, alanine (10 mM), arginine (10 mM), asparagine (10 mM), aspartic acid (10 mM), cysteine (10 mM), glutamine (10 mM), glutamic acid (10 mM), glycine (10 mM), histidine (10 mM), isoleucine (10 mM), leucine (10 mM), lysine (10 mM), methionine (10 mM), phenylalanine (10 mM), proline (10 mM), serine (10 mM), threonine (10 mM), tryptophan (10 mM), tyrosine (10 mM), valine (10 mM), ornithine (10 mM), taurine (10 mM), or hydroxyproline (10 mM) was added, and Ca ion concentration-dependent Cl response current was measured. […] As for the above-described amino acids, the activating action is reported in Proc. Natl. Acad. Sci. USA, Apr. 25, 2000, 97(9): 4814-9.
The calcium receptor-activating action of D-cysteine was evaluated by using the method described in Example 13. That is, oocytes injected with cRNA of the calcium receptor or sterilized water were prepared, and membrane potential-clamped at −70 mV by the double electrode potential clamp method. To the potential-clamped oocytes, D-cysteine (10 mM), L-cysteine (10 mM), D-tryptophan (10 mM), or L-tryptophan (10 mM) was added, and Ca ion concentration-dependent Cl response current was measured.
The calcium receptor-activating action of a peptide was evaluated by using the method described in Example 13. That is, oocytes injected with cRNA of the calcium receptor or sterilized water were prepared, and membrane potential-clamped at −70 mV by the double electrode potential clamp method.

As for `N[C@@H](CCC(=O)N[C@@H](CS)C(=O)NCC(=O)O)C(=O)O` [γ-Glu-Cys-Gly], the “calcium receptor-activating action (Ca ion concentration-dependent Cl response current)” value is given as “definite calcium receptor-activating action”.
